From US20150087682A1, “Method for Treating Scleroderma” (The Regents of the University of Colorado, A body corporate, priority 2012, published 2015)

Target: TLR4 (Homo sapiens, UniProt O00206)
Assay: Inhibition of the TLR4 signaling pathway / TLR4 binding
Experimental: These compounds were evaluated for inhibition of the TLR4 signaling pathway in vitro and in vivo.

TLR4, sequence (O00206 24-839, species assumed): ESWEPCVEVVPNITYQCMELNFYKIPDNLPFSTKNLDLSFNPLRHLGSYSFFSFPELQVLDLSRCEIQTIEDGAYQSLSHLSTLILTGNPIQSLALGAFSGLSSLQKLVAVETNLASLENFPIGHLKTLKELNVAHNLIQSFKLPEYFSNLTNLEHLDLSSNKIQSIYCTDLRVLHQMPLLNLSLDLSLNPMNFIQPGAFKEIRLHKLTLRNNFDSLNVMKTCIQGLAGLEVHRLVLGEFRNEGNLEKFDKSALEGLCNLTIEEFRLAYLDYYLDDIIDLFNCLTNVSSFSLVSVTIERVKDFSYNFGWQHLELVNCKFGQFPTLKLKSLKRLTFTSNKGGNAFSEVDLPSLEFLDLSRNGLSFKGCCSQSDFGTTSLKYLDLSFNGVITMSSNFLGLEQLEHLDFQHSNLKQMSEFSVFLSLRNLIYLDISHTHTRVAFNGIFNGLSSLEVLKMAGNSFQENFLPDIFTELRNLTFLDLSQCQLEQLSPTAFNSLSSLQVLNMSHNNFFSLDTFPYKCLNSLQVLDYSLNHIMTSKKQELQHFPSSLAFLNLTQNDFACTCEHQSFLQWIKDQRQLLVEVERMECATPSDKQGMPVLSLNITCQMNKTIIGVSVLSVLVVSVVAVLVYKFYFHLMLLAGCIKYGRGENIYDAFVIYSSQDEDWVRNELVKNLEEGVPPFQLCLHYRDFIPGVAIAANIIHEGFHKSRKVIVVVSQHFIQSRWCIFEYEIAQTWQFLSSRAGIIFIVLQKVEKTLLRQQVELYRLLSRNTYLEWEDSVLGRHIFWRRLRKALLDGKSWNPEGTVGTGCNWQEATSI

- TLR4 binding: substantially inhibited TLR4 binding
SMILES: CCOc1ccc(OCC(O)CN(C)Cc2c(C)nn(Cc3ccccc3Cl)c2C)cc1 (stereo not shown) [Compound A-1, 1-(((1-(2-chlorobenzyl)-3,5-dimethyl-1H-pyrazol-4-yl)methyl)(methyl)amino)-3-(4-ethoxyphenoxy)propan-2-ol]
